According to publication PMC12655637, “Design, Synthesis, and Mechanistic Study of Novel Ciprofloxacin/Thiazole Chalcone Hybrids as Potential Anticancer Agents” (Pharmaceuticals, 2025):

What was measured:
Experiment in all cases: NCI-60 screening, one-dose (10 µM) and five-dose, SRB
HCC-2998 = assay type: cell-based, human
TK-10 = assay type: cell-based, human
HS 578T = assay type: cell-based, human
HOP-62 = assay type: cell-based, human
NCI-H522 = assay type: cell-based, human
PC-3 = assay type: cell-based, human
BT-549 = assay type: cell-based
MDA-MB-435 = assay type: cell-based
SN12C = assay type: cell-based, human
NCI-H460 = assay type: cell-based, human; conditions: five-dose, NCI-H460
CAKI-1 = assay type: cell-based
HT29 = assay type: cell-based, human
SNB-19 = assay type: cell-based
LOX IMVI = assay type: cell-based, human; conditions: five-dose
MDA-MB-468 = assay type: cell-based, human; conditions: Homo sapiens
Text: Control cells Test cells FLD
available usually at NCI library.
An aliquot of frozen drug concentrate is […]

DU-145 = assay type: cell-based, human; conditions: Homo sapiens; 10 μM; DU-145, Prostate Cancer; read-out: Growth percentage
[1] = Homo sapiens, five-dose, HCC-2998
[2] = Homo sapiens, five-dose, read-out: LC50 (the source's name)
[3] = Homo sapiens, five-dose, HOP-62
[4] = Homo sapiens, five-dose, NCI-H522
[5] = Homo sapiens, five-dose, BT-549
[6] = Homo sapiens, read-out: LC50 (the source's name)
[7] = Homo sapiens, five-dose, CAKI-1
[8] = Homo sapiens, HT-29, five-dose, HT29
[9] = Homo sapiens, five-dose, SNB-19

Compound `Cc1nc(SCC(=O)N2CCN(c3cc4c(cc3F)c(=O)c(C(=O)O)cn4C3CC3)CC2)sc1C(=O)/C=C/c1cccc(F)c1` [Compound 4d, (E)-1-Cyclopropyl-6-fluoro-7-(4-(2-((5-(3-(3-fluorophenyl)acryloyl)-4-methylthiazol-2-yl)thio)acetyl)piperazin-1-yl)-4-oxo-1,4-dihydroquinoline-3-carboxylic Acid] has an activity at 10 µM (HCC-2998; Homo sapiens, 10 μM, HCC-2998, Colon Cancer, read-out: Growth percentage) of -29%, a GI50 (HCC-2998; [1]) of 1.4 µM and an IC50 (HCC-2998; [1]) of 8.5 µM. The CC50 (HCC-2998; Homo sapiens, five-dose, HCC-2998, read-out: LC50 (the source's name)) was over 100 µM, the TGI (HCC-2998; five-dose, HCC-2998) was 0.42 µM and the activity at 10 µM (TK-10; Homo sapiens, 10 μM, TK-10, Renal Cancer, read-out: Growth percentage) was 97.5%. It also gave a GI50 (TK-10; Homo sapiens, five-dose, TK-10) of over 100 µM, an IC50 (TK-10; Homo sapiens, five-dose, TK-10) of over 100 µM and a CC50 (TK-10; Homo sapiens, five-dose, TK-10, read-out: LC50 (the source's name)) of over 100 µM. For the same compound, the TGI (TK-10; five-dose, TK-10) was 100.0 µM, the activity at 10 µM (HS 578T; Homo sapiens, 10 μM, Breast Cancer, read-out: Growth percentage) was 36.2% and the GI50 (HS 578T; Homo sapiens, five-dose) was over 100 µM. The IC50 (HS 578T; Homo sapiens, five-dose) was over 100 µM, the CC50 (HS 578T; [2]) was over 100 µM and the TGI (HS 578T; five-dose) was 28.2 µM. For the same compound, the activity at 10 µM (HOP-62; Homo sapiens, HOP-62, 10 μM, HOP-62, Non-Small-Cell Lung Cancer, read-out: Growth percentage) was -55.3%, the GI50 (HOP-62; [3]) was 7.4 µM and the IC50 (HOP-62; [3]) was 72.4 µM. It also gave a CC50 (HOP-62; Homo sapiens, five-dose, HOP-62, read-out: LC50 (the source's name)) of over 100 µM, a TGI (HOP-62; five-dose, HOP-62) of 100.0 µM and an activity at 10 µM (NCI-H522; Homo sapiens, 10 μM, NCI-H522, Non-Small-Cell Lung Cancer, read-out: Growth percentage) of 88.2%. It also gave a GI50 (NCI-H522; [4]) of over 100 µM, an IC50 (NCI-H522; [4]) of over 100 µM and an LC50 (concentration killing 50% of cells) (NCI-H522; [4]) of over 100 µM. The TGI (NCI-H522; five-dose, NCI-H522) was 100.0 µM, the activity at 10 µM (PC-3; Homo sapiens, 10 μM, PC-3, Prostate Cancer, read-out: Growth percentage) was 53.4% and the GI50 (PC-3; Homo sapiens, five-dose, PC-3) was 51.3 µM. For the same compound, the IC50 (PC-3; Homo sapiens, five-dose, PC-3) was over 100 µM, the CC50 (PC-3; Homo sapiens, five-dose, PC-3, read-out: LC50 (the source's name)) was over 100 µM and the TGI (PC-3; five-dose, PC-3) was 100.0 µM. It also gave an activity at 10 µM (BT-549; Homo sapiens, 10 μM, BT-549, Breast Cancer, read-out: Growth percentage) of -88.5%, a GI50 (BT-549; [5]) of 5.4 µM and an IC50 (BT-549; [5]) of 25.7 µM. The CC50 (BT-549; Homo sapiens, five-dose, BT-549, read-out: LC50 (the source's name)) was over 100 µM, the TGI (BT-549; five-dose, BT-549) was 100.0 µM and the GI50 (MDA-MB-435; Homo sapiens, MDA-MB-435) was 3.7 µM. It also gave an IC50 (MDA-MB-435; Homo sapiens, MDA-MB-435) of 6.9 µM, an activity at 10 µM (MDA-MB-435; Homo sapiens, MDA-MB-435, read-out: Growth percentage, 10 μM, MDA-MB-435, Melanoma) of -3.7% and a CC50 (MDA-MB-435; Homo sapiens, five-dose, MDA-MB-435, read-out: LC50 (the source's name)) of over 100 µM. The TGI (MDA-MB-435; five-dose, MDA-MB-435) was 100.0 µM, the activity at 10 µM (SN12C; Homo sapiens, 10 μM, Renal Cancer, read-out: Growth percentage) was 27.7% and the GI50 (SN12C; Homo sapiens, five-dose) was over 100 µM. For the same compound, the IC50 (SN12C; Homo sapiens, five-dose) was over 100 µM, the CC50 (SN12C; [2]) was over 100 µM and the TGI (SN12C; five-dose) was 100.0 µM. For the same compound, the GI50 (NCI-H460; Homo sapiens) was over 100 µM, the IC50 (NCI-H460; Homo sapiens) was over 100 µM and the CC50 (NCI-H460; [6]) was over 100 µM. It also gave a TGI (NCI-H460) of 100.0 µM, an activity at 10 µM (CAKI-1; Homo sapiens, 10 μM, CAKI-1, Renal Cancer, read-out: Growth percentage) of 79.8% and a GI50 (CAKI-1; [7]) of over 100 µM. It also gave an IC50 (CAKI-1; [7]) of over 100 µM, a CC50 (CAKI-1; Homo sapiens, five-dose, CAKI-1, read-out: LC50 (the source's name)) of over 100 µM and a TGI (CAKI-1; five-dose, CAKI-1) of 100.0 µM. For the same compound, the activity at 10 µM (HT29; Homo sapiens, HT-29, 10 μM, HT29, Colon Cancer, read-out: Growth percentage) was 3.7%, the GI50 (HT29; [8]) was over 100 µM and the IC50 (HT29; [8]) was 100 µM. For the same compound, the CC50 (HT29; Homo sapiens, HT-29, five-dose, HT29, read-out: LC50 (the source's name)) was over 100 µM, the TGI (HT29; five-dose, HT29) was 1.91 µM and the activity at 10 µM (SNB-19; Homo sapiens, 10 μM, SNB-19, CNS Cancer, read-out: Growth percentage) was 12.2%. The GI50 (SNB-19; [9]) was 6.9 µM, the IC50 (SNB-19; [9]) was 28.2 µM and the CC50 (SNB-19; Homo sapiens, five-dose, SNB-19, read-out: LC50 (the source's name)) was over 100 µM. For the same compound, the TGI (SNB-19; five-dose, SNB-19) was 100.0 µM, the GI50 (LOX IMVI; Homo sapiens) was 2.8 µM and the IC50 (LOX IMVI; Homo sapiens) was 4.1 µM. The CC50 (LOX IMVI; [6]) was over 100 µM, the TGI (LOX IMVI) was 100.0 µM and the activity at 10 µM (MDA-MB-468; MDA-MB-468, 10 μM, MDA-MB-468, Breast Cancer, read-out: Growth percentage) was -11.1%. The GI50 (MDA-MB-468; five-dose, MDA-MB-468) was 4.1 µM, the IC50 (MDA-MB-468; five-dose, MDA-MB-468) was over 100 µM and the CC50 (MDA-MB-468; five-dose, MDA-MB-468, read-out: LC50 (the source's name)) was over 100 µM. For the same compound, the activity at 10 µM (DU-145) was 73.7%.
